Columns and labels:
Test in all cases: Kinase inhibitor library screening, PrestoBlue cell viability, 1 or 10 μM, 72 h
[1] = test system: 501Mel cells (parental); conditions: 72 h; for viability at 1 µM / viability at 10 µM: Homo sapiens; for viability at 1 µM: read-out: cell viability, 501Mel Parental, 1μΜ; for viability at 10 µM: read-out: cell viability, 501Mel Parental, 10μΜ
Outline: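 Sensitive parental cells and their resistant derivatives were exposed to library compounds for 72 h. Values represent viability as a percentage of untreated cells.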

[2] = test system: A375 cells (parental); conditions: for viability at 1 µM / viability at 10 µM: Homo sapiens, A-375, 72 h; for viability at 1 µM: read-out: cell viability, A375 Parental, 1μΜ; for viability at 10 µM: read-out: cell viability, A375 Parental, 10μΜ
[3] = test system: A375-GP cells (Dabrafenib-resistant); conditions: for viability at 1 µM / viability at 10 µM: Homo sapiens, A-375, 72 h; for viability at 1 µM: read-out: cell viability, A375 GP, 1μΜ; for viability at 10 µM: read-out: cell viability, A375 GP, 10μΜ
[4] = test system: 501Mel-XP cells (Vemurafenib-resistant); conditions: 72 h; for viability at 1 µM / viability at 10 µM: Homo sapiens; for viability at 1 µM: read-out: cell viability, 501Mel XP, 1μΜ; for viability at 10 µM: read-out: cell viability, 501Mel XP, 10μΜ
[5] = test system: 501Mel-GP cells (Dabrafenib-resistant); conditions: 72 h; for viability at 1 µM / viability at 10 µM: Homo sapiens; for viability at 1 µM: read-out: cell viability, 501Mel GP, 1μΜ; for viability at 10 µM: read-out: cell viability, 501Mel GP, 10μΜ
[6] = test system: IGR37 cells (parental); conditions: for viability at 1 µM / viability at 10 µM: Homo sapiens, IGR-37, 72 h; for viability at 1 µM: read-out: cell viability, IGR37 Parental, 1μΜ; for viability at 10 µM: read-out: cell viability, IGR37 Parental, 10μΜ
[7] = test system: IGR37-GP cells (Dabrafenib-resistant); conditions: for viability at 1 µM / viability at 10 µM: Homo sapiens, IGR-37, 72 h; for viability at 1 µM: read-out: cell viability, IGR37 GP, 1μΜ; for viability at 10 µM: read-out: cell viability, IGR37 GP, 10μΜ
[8] = test system: IGR37-XP cells (Vemurafenib-resistant); conditions: for viability at 1 µM / viability at 10 µM: Homo sapiens, IGR-37, 72 h; for viability at 1 µM: read-out: cell viability, IGR37 XP, 1μΜ; for viability at 10 µM: read-out: cell viability, IGR37 XP, 10μΜ
[9] = test system: A375-XP cells (Vemurafenib-resistant); conditions: for viability at 1 µM / viability at 10 µM: Homo sapiens, A-375, 72 h; for viability at 1 µM: read-out: cell viability, A375 XP, 1μΜ; for viability at 10 µM: read-out: cell viability, A375 XP, 10μΜ

For `Cc1[nH]c(/C=C2\C(=O)Nc3ccc(S(=O)(=O)Cc4c(Cl)cccc4Cl)cc32)c(C)c1C(=O)N1CCC[C@@H]1CN1CCCC1` [PHA-665752], the “cell viability (kinase inhibitor library screening)” value ([1]; 501Mel Parental, 1μΜ) was 100.2%, the “cell viability (kinase inhibitor library screening)” value ([1]; 501Mel Parental, 10μΜ) was 0.232% and the “cell viability (kinase inhibitor library screening)” value ([2]; A375 Parental, 10μΜ, 72 h) was 1.9%. For the same molecule, the “cell viability (kinase inhibitor library screening)” value ([2]; A375 Parental, 1μΜ, 72 h) was 98.9%, the “cell viability (kinase inhibitor library screening)” value ([3]; A375 GP, 1μΜ, 72 h) was 96.1% and the “cell viability (kinase inhibitor library screening)” value ([3]; A375 GP, 10μΜ, 72 h) was 0.5%. For the same molecule, the “cell viability (kinase inhibitor library screening)” value ([4]; 501Mel XP, 1μΜ) was 70.6%, the “cell viability (kinase inhibitor library screening)” value ([4]; 501Mel XP, 10μΜ) was -0.7% and the “cell viability (kinase inhibitor library screening)” value ([5]; 501Mel GP, 1μΜ) was 86.9%. The “cell viability (kinase inhibitor library screening)” value ([5]; 501Mel GP, 10μΜ) was -0.7%, the “cell viability (kinase inhibitor library screening)” value ([6]; IGR37 Parental, 1μΜ, 72 h) was 99.2% and the “cell viability (kinase inhibitor library screening)” value ([6]; IGR37 Parental, 10μΜ, 72 h) was 0.24%. For the same molecule, the “cell viability (kinase inhibitor library screening)” value ([7]; IGR37 GP, 1μΜ, 72 h) was 98.8%, the “cell viability (kinase inhibitor library screening)” value ([7]; IGR37 GP, 10μΜ, 72 h) was 0.8% and the “cell viability (kinase inhibitor library screening)” value ([8]; IGR37 XP, 10μΜ, 72 h) was 0.9%. The “cell viability (kinase inhibitor library screening)” value ([9]; A375 XP, 1μΜ, 72 h) was 99.9% and the “cell viability (kinase inhibitor library screening)” value ([9]; A375 XP, 10μΜ, 72 h) was 0.9%.
In the case of `COc1ncc(-c2ccc3nccc(-c4ccnnc4)c3c2)cc1NS(=O)(=O)c1ccc(F)cc1F` [GSK2126458], the “Cell viability in kinase inhibitor library screening, 501Mel Parental, 1μΜ” value ([1]; 501Mel Parental, 1μΜ, in %) was 3.1, the “Cell viability in kinase inhibitor library screening, 501Mel Parental, 10μΜ” value ([1]; 501Mel Parental, 10μΜ, in %) was 0.9 and the “Cell viability in kinase inhibitor library screening, A375 Parental, 10μΜ” value ([2]; A375 Parental, 10μΜ, 72 h) was 3.2. For the same molecule, the “Cell viability in kinase inhibitor library screening, A375 Parental, 1μΜ” value ([2]; A375 Parental, 1μΜ, 72 h) was 15.7, the “Cell viability in kinase inhibitor library screening, A375 GP, 1μΜ” value ([3]; A375 GP, 1μΜ, 72 h) was 14.4 and the “Cell viability in kinase inhibitor library screening, A375 GP, 10μΜ” value ([3]; A375 GP, 10μΜ, 72 h) was 3.9. For the same molecule, the “Cell viability in kinase inhibitor library screening, 501Mel XP, 1μΜ” value ([4]; 501Mel XP, 1μΜ, in %) was 2.1, the “Cell viability in kinase inhibitor library screening, 501Mel XP, 10μΜ” value ([4]; 501Mel XP, 10μΜ, in %) was 0.8 and the “Cell viability in kinase inhibitor library screening, 501Mel GP, 1μΜ” value ([5]; 501Mel GP, 1μΜ, in %) was 6.0. For the same molecule, the “Cell viability in kinase inhibitor library screening, 501Mel GP, 10μΜ” value ([5]; 501Mel GP, 10μΜ, in %) was 0.6, the “Cell viability in kinase inhibitor library screening, IGR37 Parental, 1μΜ” value ([6]; IGR37 Parental, 1μΜ, 72 h, in %) was 7.2 and the “Cell viability in kinase inhibitor library screening, IGR37 Parental, 10μΜ” value ([6]; IGR37 Parental, 10μΜ, 72 h, in %) was 0.469. The Cell viability in kinase inhibitor library screening, IGR37 GP, 10μΜ ([7]; IGR37 GP, 10μΜ, 72 h) was 2.7%, the “Cell viability in kinase inhibitor library screening, IGR37 GP, 1μΜ” value ([7]; IGR37 GP, 1μΜ, 72 h, in %) was 9.1 and the Cell viability in kinase inhibitor library screening, IGR37 XP, 10μΜ ([8]; IGR37 XP, 10μΜ, 72 h) was 1.1%. For the same molecule, the “Cell viability in kinase inhibitor library screening, IGR37 XP, 1μΜ” value ([8]; IGR37 XP, 1μΜ, 72 h, in %) was 7.6, the “Cell viability in kinase inhibitor library screening, A375 XP, 1μΜ” value ([9]; A375 XP, 1μΜ, 72 h) was 13.7 and the “Cell viability in kinase inhibitor library screening, A375 XP, 10μΜ” value ([9]; A375 XP, 10μΜ, 72 h) was 2.8.
`C=CC(=O)Nc1ccc2ncnc(Nc3ccc(OCc4cccc(F)c4)c(Cl)c3)c2c1` [AST-1306] was tested, and the viability at 1 µM [1] was 94.1%, the viability at 10 µM [1] was 3% and the viability at 1 µM [2] was 95%. The viability at 10 µM [2] was 2.9%, the viability at 1 µM [3] was 85.4% and the viability at 10 µM [3] was 0.6%. For the same molecule, the viability at 1 µM [4] was 89.2%, the viability at 10 µM [4] was -0.162% and the viability at 1 µM [5] was 103%. The viability at 10 µM [5] was 2.3%, the viability at 1 µM [6] was 99.8% and the viability at 10 µM [6] was 1.8%. For the same molecule, the viability at 1 µM [7] was 87.4%, the viability at 10 µM [7] was 2.2% and the viability at 1 µM [8] was 72.8%. It also gave a viability at 10 µM [8] of 1.1%, a viability at 1 µM [9] of 90.9% and a viability at 10 µM [9] of 0.8%.
`CCN(CC)CCCCNc1ncc2cc(-c3cc(OC)cc(OC)c3)c(NC(=O)NC(C)(C)C)nc2n1` [PD173074] showed a viability at 1 µM [1] of 103%, a viability at 10 µM [1] of 11.8% and a viability at 1 µM [2] of 105%. For the same molecule, the viability at 10 µM [2] was 70.1%, the viability at 1 µM [3] was 98.2% and the viability at 10 µM [3] was 62.8%. It also gave a viability at 1 µM [4] of 97.2%, a viability at 10 µM [4] of -0.025% and a viability at 1 µM [5] of 106%. For the same molecule, the viability at 10 µM [5] was 13.2%, the viability at 1 µM [6] was 99.8% and the viability at 10 µM [6] was 75.6%. It also gave a viability at 1 µM [7] of 91.4%, a viability at 10 µM [7] of 50% and a viability at 1 µM [8] of 92.2%. It also gave a viability at 10 µM [8] of 14.7%, a viability at 1 µM [9] of 100% and a viability at 10 µM [9] of 72%.

Reference: PMC6364417, “Kinase inhibitor library screening identifies synergistic drug combinations effective in sensitive and resistant melanoma cells” (Journal of Experimental & Clinical Cancer Research : CR, 2019)
